Values after ≈ are worked out from the molar mass of the structure shown.
Assays:
Solubility test = assay type: physicochemical
Description: According to the conventional method for solubility assay, the solubility of the compounds of the present invention in the following four different systems was tested: phosphate salt buffer PBS (pH7.4), methanol, 0.1% HCl and water.

human AT2R = biological target: T1, human AT2R (Homo sapiens, UniProt P50052); assay: Antagonistic activity against human AT2R ligand binding (Tag-lite HTRF); conditions: Tb-labeled-AT2R cells, red agonist fluorescent ligand, 1 hour at 25° C.
T1 construct: Tb (terbium) label on the receptor; expressed in transfected cells
T1 sequence (P50052 1-363): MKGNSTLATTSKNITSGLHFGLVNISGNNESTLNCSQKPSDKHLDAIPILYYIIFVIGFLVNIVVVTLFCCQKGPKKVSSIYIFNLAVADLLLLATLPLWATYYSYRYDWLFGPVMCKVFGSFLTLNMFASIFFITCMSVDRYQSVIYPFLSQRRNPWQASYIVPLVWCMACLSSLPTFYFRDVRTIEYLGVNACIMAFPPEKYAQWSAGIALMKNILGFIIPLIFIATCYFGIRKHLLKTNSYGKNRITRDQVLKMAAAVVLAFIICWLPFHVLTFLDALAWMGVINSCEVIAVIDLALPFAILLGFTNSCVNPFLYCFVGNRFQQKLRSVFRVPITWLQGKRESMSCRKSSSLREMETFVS
Source text: Test Example 1 Test of the antagonistic activity of the compounds of the present invention against human AT2R ligand binding.
Angiotensin II Type-2 receptor (ATR) is involved in neuronal differentiation and regeneration, cell proliferation and angiogenesis, and maintenance of bone mass. ATR inhibitors can be used for treating pain and abnormal neuroregenerative diseases, inhibiting the proliferation of tumor cells and increasing bone mass. In the following methods, the degree of antagonism of the compounds of the present invention against AT2R was studied through AT2 ligand binding assay.
According to standard methods, test compounds (compound 1m and compounds 1-4) were respectively dissolved in dimethyl sulfoxide to be prepared into stock solutions of 10 mM.
(2) The test compound was subjected to 5-fold dilution with a total of 10 concentration gradients;
(3) The diluted compound in step (2) was transferred to a working plate (3657, Corning) at 160 nL/well, 200 g at room temperature for 1 minute; […]
(11) The reaction plate was centrifuged at 200 g for 1 minute at room temperature, then kept still at room temperature 25° C. for 1 hour, and centrifuged at 200 g for 1 minute at room temperature. Data were collected using Envision HTRF microplate reader, and IC50 was calculated using nonlinear fitting formula.

[1] = Pharmacokinetic assay in SD rats; assay type: in vivo; conditions: PO 60 mg/kg; for AUC(0-inf) / Cmax / half-life / MRT: both sexes, Sprague-Dawley, rat, plasma; for AUC(0-inf): read-out: Area under the curve AUC0-∞; for Cmax: read-out: Blood concentration Cmax; for half-life: read-out: Half life T½ (converted); for MRT: read-out: Residence time MRT
Description: SD rats were taken as the test animals, and the compounds of the present invention were administrated to the rats by intravenous injection or gavage. Then the drug concentrations in the plasma at different times were measured using LC/MS/MS method to study the pharmacokinetic characteristics of the compounds of the present invention in rats.
Six healthy adult Sprague Dawley (SD) male rats were purchased from Vital River Laboratory Animal Technology Co., Ltd.
76.32 mg of compound 1m was weighed and dissolved in 12.72 mL of 0.5% sodium carboxymethyl cellulose (CMC-Na), the mixture was mixed by vortex for 1 minute until the compound was completely suspended, and the final prepared concentration was 6 mg/mL;
76.61 mg of compound 1 was weighed and dissolved in 12.768 mL of 0.5% sodium carboxymethyl cellulose (CMC-Na), the mixture was mixed by vortex for 1 minute until the compound was completely suspended, and the final prepared concentration was 6 mg/mL.
Compounds 2 to 4 were weighed and dissolved in an appropriate amount of 0.5% sodium carboxymethyl cellulose (CMC-Na), the mixture was mixed by vortex for 1 minute until the compound was completely suspended, and the final prepared concentration was 6 mg/mL.
Six healthy adult SD rats, half male and half female, were divided into 2 groups, 3 rats in each group. The rats were fasted overnight, and then intragastrically administered (po) with the compound 1m or compounds 1 to 4 of the present invention at a dose of 60 mg/kg.
About 0.25 mL of blood was collected from the jugular vein before the administration and 0.25 hours, 0.5 hours, 1 hour, 2 hours, 4 hours, 6 hours, 8 hours and 24 hours after the administration, and heparin sodium was used for anticoagulation. The blood samples were placed on ice after collection, and then centrifuged to separate the plasma (centrifugation conditions: 7000 rpm, 5 minutes). The collected plasma was stored below −70° C. until analysis.
300 μL of methanol (comprising internal standard working solution, Loratadine 800 ng/mL) was added to 100 μL of plasma sample, then the mixture was mixed by vortex for 5 minutes, then the obtained mixture was centrifuged at 10,000 rpm for 10 minutes, and 1 μL of the resulting mixture was taken and subjected to LC-MS/MS analysis.

[2] = methanol, organic solvent or mixture

SMILES	solubility (Solubility test; aqueous buffer, PBS (pH 7.4))	solubility (Solubility test; [2])	solubility (Solubility test; water)	IC50 (human AT2R)	Increase of area under the curve compared with compound 1m ([1]; versus free acid compound 1m)	Increase of plasma concentration compared with compound 1m ([1]; versus free acid compound 1m)	AUC(0-inf) [1]	Cmax [1]	half-life [1]	MRT [1]
COc1ccc(COc2c(OC)ccc3c2C[C@@H](C(=O)[O-])N(c2nc4ccc(F)cc4o2)C3)nc1.[Na+] [Compound 1]	8.69 mg/mL	> 10 mg/mL	6.41 mg/mL	6 nM	14 times	more than 50 times	328 ± 53.2 µg·h/mL	127 ± 12.7 µg/mL	3.57 ± 0.85 h	2.59 ± 0.41 h
COc1ccc(COc2c(OC)ccc3c2C[C@@H](C(=O)O)N(c2nc4ccc(F)cc4o2)C3)nc1 [Compound 1m]	0.15 mg/mL (≈ 313 µM)	0.34 mg/mL (≈ 709 µM)	0.03 mg/mL (≈ 62.6 µM)	–	–	–	22.2 ± 9.1 µg·h/mL	2.4 ± 0.53 µg/mL	3.73 ± 1.25 h	6.13 ± 1.13 h
